Measured values reported in PubChem BioAssay AID256 (DTP/NCI, 2004).
“And” between values parts separate entries of the source, which are not always exact repeats. Equal values may be shown once. Inconclusive results and toxic doses are left out.

Test system: CD2F1 mice, L1210 leukemia ip, survival T/C
Test: NCI In Vivo Anticancer Drug Screen. Data for tumor model L1210 Leukemia (intraperitoneal) in CD2F1 (CDF1) mice
Settings: endpoint: mean survival time, higher = longer survival
How it was run: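 Mice carrying a transplanted tumor received test compound or vehicle alone. The value is the measurement in the treated group divided by that in the vehicle-treated control group.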

[1] = dose: 100.0 mg/kg/injection, schedule: Q01DX001 (ip), vehicle: saline with Tween-80
[2] = dose: 200.0 mg/kg/injection, schedule: Q01DX001 (ip), vehicle: saline with Tween-80
[3] = dose: 400.0 mg/kg/injection, schedule: Q01DX001 (ip), vehicle: saline with Tween-80
[4] = dose: 100.0 mg/kg/injection, schedule: Q04DX003 (ip), vehicle: saline with Tween-80
[5] = dose: 100.0 mg/kg/injection, schedule: Q01DX009 (ip), vehicle: saline with Tween-80
[6] = dose: 100.0 mg/kg/injection, schedule: Q04DX003 (ip), vehicle: saline
[7] = dose: 200.0 mg/kg/injection, schedule: Q01DX009 (ip), vehicle: saline with Tween-80
[8] = dose: 200.0 mg/kg/injection, schedule: Q04DX003 (ip), vehicle: saline
[9] = dose: 400.0 mg/kg/injection, schedule: Q01DX009 (ip), vehicle: saline with Tween-80

SMILES: S=C(Nc1ccccn1)NC1CC2C=CC1C2 (stereo unspecified)
- T/C [1]: 93 % of control
- T/C [2]: 101 % of control
- T/C [3]: 108 % of control

SMILES: CC(=O)N(N)c1ccccc1
- T/C [1]: 105 % of control
- T/C [2]: 109 % of control
- T/C [3]: 105 % of control

SMILES: CC(O)C(O)C(O)C(O)CO (stereo unspecified) (tested in a mixture with another compound)
- T/C (dose: 75.0 mg/kg/injection, schedule: Q01DX001 (ip), vehicle: saline with Tween-80): 87 % of control
- T/C (dose: 150.0 mg/kg/injection, schedule: Q01DX001 (ip), vehicle: saline with Tween-80): 93 % of control
- T/C (dose: 300.0 mg/kg/injection, schedule: Q01DX001 (ip), vehicle: saline with Tween-80): 86 % of control

SMILES: N=C(N)c1ccc(OCCCCOc2ccc(NC(=O)Nc3ccc(S(=O)(=O)F)cc3Cl)cc2)cc1
- T/C (dose: 12.5 mg/kg/injection, schedule: Q01DX001 (ip), vehicle: saline with Tween-80): 98 % of control
- T/C (dose: 25.0 mg/kg/injection, schedule: Q01DX001 (ip), vehicle: saline with Tween-80): 98 % of control
- T/C (dose: 50.0 mg/kg/injection, schedule: Q01DX001 (ip), vehicle: saline with Tween-80): 96 % of control

SMILES: CCCN(CCC)S(=O)(=O)c1ccc(NC(=O)OCc2ccccc2)cc1
- T/C (dose: 100.0 mg/kg/injection, schedule: Q01DX001 (ip), vehicle: saline): 103 % of control
- T/C (dose: 200.0 mg/kg/injection, schedule: Q01DX001 (ip), vehicle: saline): 103 % of control
- T/C (dose: 400.0 mg/kg/injection, schedule: Q01DX001 (ip), vehicle: saline): 93 % of control

SMILES: O=C(C[n+]1ccccc1Cc1ccccc1)c1ccccc1
- T/C (dose: 25.0 mg/kg/injection, schedule: Q04DX003 (ip), vehicle: saline with Tween-80): 93 % of control
- T/C (dose: 50.0 mg/kg/injection, schedule: Q04DX003 (ip), vehicle: saline with Tween-80): 96 % of control
- T/C [4]: 101 % of control

SMILES: Cc1nc(N)n[nH]1
- T/C [5]: 92 % of control
- T/C [6]: 102 % of control
- T/C [7]: 97 % of control
- T/C [8]: 100 % of control
- T/C [9]: 88 % of control
- T/C (dose: 400.0 mg/kg/injection, schedule: Q04DX003 (ip), vehicle: saline): 96 % of control

SMILES: O=P(O)(O)OCC(O)CO.[NH-]C1CCCCC1[NH-].[Pt+2] (stereo unspecified)
- T/C (dose: 1.17 mg/kg/injection, schedule: Q04DX003 (ip), vehicle: other): 115 % of control
- T/C (dose: 9.38 mg/kg/injection, schedule: Q04DX003 (ip), vehicle: other): 231 % of control
- T/C (dose: 18.75 mg/kg/injection, schedule: Q04DX003 (ip), vehicle: other): 186 % of control
- T/C (dose: 37.5 mg/kg/injection, schedule: Q04DX003 (ip), vehicle: other): 104 % of control

SMILES: O=C1c2ccccc2C2c3ccccc3CCN12 (stereo unspecified)
- T/C [5]: 103 % of control
- T/C [4]: 104 % of control
- T/C [7]: 97 % of control
- T/C (dose: 200.0 mg/kg/injection, schedule: Q04DX003 (ip), vehicle: saline with Tween-80): 102 % of control
- T/C [9]: 97 % of control
- T/C (dose: 400.0 mg/kg/injection, schedule: Q04DX003 (ip), vehicle: saline with Tween-80): 102 % of control

SMILES: CC(N)(C(=O)O)c1ccccc1 (stereo unspecified)
- T/C (dose: 100.0 mg/kg/injection, schedule: Q01DX001 (ip), vehicle: other): 92 % of control and 96 % of control
- T/C (dose: 200.0 mg/kg/injection, schedule: Q01DX001 (ip), vehicle: other): 100 % of control and 102 % of control
- T/C (dose: 400.0 mg/kg/injection, schedule: Q01DX001 (ip), vehicle: other): 96 % of control and 94 % of control

SMILES: CC1NC(=O)OC1(C)C(C)(C)C (stereo unspecified)
- T/C (dose: 5.0 mg/kg/injection, schedule: Q01DX009 (ip), vehicle: saline with Tween-80): 94 % of control
- T/C (dose: 10.0 mg/kg/injection, schedule: Q01DX009 (ip), vehicle: saline with Tween-80): 104 % of control
- T/C (dose: 20.0 mg/kg/injection, schedule: Q01DX009 (ip), vehicle: saline with Tween-80): 102 % of control

SMILES: CN1C(=O)CC(c2ccc(N3C(=O)C=CC3=O)cc2)C1=O (stereo unspecified)
- T/C (dose: 6.25 mg/kg/injection, schedule: Q04DX002 (ip), vehicle: saline with Tween-80): 96 % of control
- T/C (dose: 12.5 mg/kg/injection, schedule: Q04DX002 (ip), vehicle: saline with Tween-80): 103 % of control
- T/C (dose: 25.0 mg/kg/injection, schedule: Q04DX002 (ip), vehicle: saline with Tween-80): 96 % of control

SMILES: CC(C(=O)c1ccccc1)N(C)Cc1ccccc1 (stereo unspecified)
- T/C (dose: 50.0 mg/kg/injection, schedule: Q04DX003 (ip), vehicle: saline): 98 % of control
- T/C [6]: 96 % of control
- T/C [8]: 93 % of control
